This is an account of results in the NIST ThermoML archive (doi:10.1016/j.fluid.2016.02.004).

Numbers after ± are expanded uncertainties.

The data set in a line: activity coefficient (dimensionless); of the first substance listed, at infinite dilution; xn = mol fraction of the nth substance listed. The settings on record: Liquid, Chromatography, x1 = 0.

Consider `CC(C)O` [propan-2-ol] + CCCCn1cc[n+](C)c1.N#CN=C=[N-], for which the activity coefficient was 0.921 ± 0.058 (318.15 K); 0.93 ± 0.059 (328.15 K); 0.94 ± 0.059 (338.15 K); 0.948 ± 0.06 (348.15 K); 0.956 ± 0.06 (358.15 K); 0.963 ± 0.061 (368.15 K).
On to `Cc1ccccc1` [toluene] + CCCCn1cc[n+](C)c1.N#CN=C=[N-], for which the activity coefficient by setting is: (318.15 K) 2.89 ± 0.2; (328.15 K) 3.01 ± 0.2; (338.15 K) 3.15 ± 0.21; (348.15 K) 3.27 ± 0.22; (358.15 K) 3.4 ± 0.2; (368.15 K) 3.54 ± 0.24.
Turning to `C1CCCCCCC1` [cyclooctane] + CCCCn1cc[n+](C)c1.N#CN=C=[N-], the activity coefficient came out at 42.4 ± 2.9 (318.15 K); 40.4 ± 2.8 (328.15 K); 38.6 ± 2.6 (338.15 K); 37.1 ± 2.5 (348.15 K); 35.8 ± 2.4 (358.15 K); 34.5 ± 2.4 (368.15 K).
Take `CCCCCCCCC` [nonane] + CCCCn1cc[n+](C)c1.N#CN=C=[N-]: the activity coefficient (318.15 K) worked out at 207 ± 14; the activity coefficient (328.15 K) was found to be 193 ± 13; the activity coefficient (338.15 K) was 181 ± 12; the activity coefficient (348.15 K) stood at 171 ± 12; the activity coefficient (358.15 K) came out at 162 ± 11; the activity coefficient (368.15 K) turned out to be 153 ± 11.
In the case of `C#CCCCCC` [1-heptyne] + CCCCn1cc[n+](C)c1.N#CN=C=[N-], the activity coefficient runs as follows: (318.15 K) 8.24 ± 0.56; (328.15 K) 8.61 ± 0.59; (338.15 K) 9.02 ± 0.62; (348.15 K) 9.42 ± 0.64; (358.15 K) 9.77 ± 0.67; (368.15 K) 10.2 ± 0.7.
Regarding `Cc1ccccc1C` [1,2-dimethylbenzene] + CCCCn1cc[n+](C)c1.N#CN=C=[N-], the activity coefficient reads like this: (318.15 K) 3.82 ± 0.26; (328.15 K) 3.97 ± 0.27; (338.15 K) 4.12 ± 0.28; (348.15 K) 4.27 ± 0.29; (358.15 K) 4.42 ± 0.3; (368.15 K) 4.57 ± 0.31.
For `CCCC(C)=O` [pentan-2-one] + CCCCn1cc[n+](C)c1.N#CN=C=[N-], the activity coefficient was 2 ± 0.14 (318.15 K); 2.11 ± 0.14 (328.15 K); 2.22 ± 0.15 (338.15 K); 2.32 ± 0.16 (348.15 K); 2.43 ± 0.17 (358.15 K); 2.53 ± 0.17 (368.15 K).
Take `COC(C)=O` [methyl ethanoate] + CCCCn1cc[n+](C)c1.N#CN=C=[N-]: the activity coefficient (318.15 K) was determined as 1.61 ± 0.11; the activity coefficient (328.15 K) worked out at 1.71 ± 0.11; the activity coefficient (338.15 K) came out at 1.81 ± 0.12; the activity coefficient (348.15 K) turned out to be 1.9 ± 0.13; the activity coefficient (358.15 K) turned out to be 1.99 ± 0.14; the activity coefficient (368.15 K) stood at 2.09 ± 0.14.
As to `CC#N` [acetonitrile] + CCCCn1cc[n+](C)c1.N#CN=C=[N-], the activity coefficient came to 0.781 ± 0.051 (318.15 K); 0.813 ± 0.053 (328.15 K); 0.844 ± 0.054 (338.15 K); 0.876 ± 0.056 (348.15 K); 0.904 ± 0.057 (358.15 K); 0.934 ± 0.059 (368.15 K).
In the case of `C1COCCO1` [1,4-dioxane] + CCCCn1cc[n+](C)c1.N#CN=C=[N-], the activity coefficient was found to be 1.06 ± 0.07 (318.15 K); 1.13 ± 0.07 (328.15 K); 1.21 ± 0.08 (338.15 K); 1.28 ± 0.08 (348.15 K); 1.36 ± 0.09 (358.15 K); 1.43 ± 0.09 (368.15 K).
As for `CCC(C)(C)C` [2,2-dimethylbutane] + CCCCn1cc[n+](C)c1.N#CN=C=[N-], the activity coefficient worked out at 53.6 ± 3.7 (318.15 K); 51.7 ± 3.5 (328.15 K); 50.1 ± 3.4 (338.15 K); 48.7 ± 3.3 (348.15 K); 47.4 ± 3.2 (358.15 K); 46 ± 3.1 (368.15 K).
As to `CCC(C)CC` [3-methylpentane] + CCCCn1cc[n+](C)c1.N#CN=C=[N-], the activity coefficient (318.15 K) was 53.7 ± 3.7; the activity coefficient (328.15 K) stood at 51.7 ± 3.5; the activity coefficient (338.15 K) stood at 50 ± 3.4; the activity coefficient (348.15 K) came to 48.4 ± 3.3; the activity coefficient (358.15 K) came out at 47.1 ± 3.2; the activity coefficient (368.15 K) was 45.6 ± 3.1.
As to `CCCCCC` [hexane] + CCCCn1cc[n+](C)c1.N#CN=C=[N-], the activity coefficient (318.15 K) stood at 61.6 ± 4.2; the activity coefficient (328.15 K) amounted to 59.3 ± 4.1; the activity coefficient (338.15 K) came out at 57.1 ± 3.9; the activity coefficient (348.15 K) was found to be 55.2 ± 3.8; the activity coefficient (358.15 K) amounted to 53.4 ± 3.7; the activity coefficient (368.15 K) is 51.7 ± 3.5.
Regarding `CC(C)=O` [acetone] + CCCCn1cc[n+](C)c1.N#CN=C=[N-], the activity coefficient reads like this: (318.15 K) 1 ± 0.06; (328.15 K) 1.05 ± 0.07; (338.15 K) 1.11 ± 0.07; (348.15 K) 1.16 ± 0.07; (358.15 K) 1.22 ± 0.08; (368.15 K) 1.27 ± 0.08.
Consider `CCCC(=O)OC` [methyl butanoate] + CCCCn1cc[n+](C)c1.N#CN=C=[N-], for which the activity coefficient is, setting by setting: (318.15 K) 3.46 ± 0.24; (328.15 K) 3.61 ± 0.25; (338.15 K) 3.75 ± 0.26; (348.15 K) 3.9 ± 0.27; (358.15 K) 4.03 ± 0.27; (368.15 K) 4.17 ± 0.28.
For the compound `c1ccncc1` [pyridine] + CCCCn1cc[n+](C)c1.N#CN=C=[N-], the activity coefficient runs as follows: (318.15 K) 0.845 ± 0.054; (328.15 K) 0.89 ± 0.06; (338.15 K) 0.94 ± 0.059; (348.15 K) 0.985 ± 0.062; (358.15 K) 1.03 ± 0.06; (368.15 K) 1.08 ± 0.07.
Regarding `CCCCCCCCCC` [decane] + CCCCn1cc[n+](C)c1.N#CN=C=[N-], the activity coefficient (318.15 K) amounted to 314 ± 22; the activity coefficient (328.15 K) was determined as 285 ± 20; the activity coefficient (338.15 K) was determined as 260 ± 18; the activity coefficient (348.15 K) came to 239 ± 16; the activity coefficient (358.15 K) was 221 ± 15; the activity coefficient (368.15 K) came to 205 ± 14.
`CCCc1ccccc1` [propylbenzene] + CCCCn1cc[n+](C)c1.N#CN=C=[N-]: the activity coefficient came to 7.36 ± 0.5 (318.15 K); 7.57 ± 0.52 (328.15 K); 7.78 ± 0.53 (338.15 K); 7.98 ± 0.54 (348.15 K); 8.15 ± 0.56 (358.15 K); 8.35 ± 0.57 (368.15 K).
For the compound `C=CCCC` [1-pentene] + CCCCn1cc[n+](C)c1.N#CN=C=[N-], the activity coefficient (318.15 K) amounted to 17.3 ± 1.2; the activity coefficient (328.15 K) is 17.3 ± 1.2; the activity coefficient (338.15 K) is 17.3 ± 1.2; the activity coefficient (348.15 K) was 17.3 ± 1.2; the activity coefficient (358.15 K) was 17.3 ± 1.2; the activity coefficient (368.15 K) is 17.3 ± 1.2.
Regarding `Cc1cccc(C)c1` [1,3-dimethylbenzene] + CCCCn1cc[n+](C)c1.N#CN=C=[N-], the activity coefficient was determined as 4.65 ± 0.32 (318.15 K); 4.82 ± 0.33 (328.15 K); 5.03 ± 0.34 (338.15 K); 5.19 ± 0.35 (348.15 K); 5.38 ± 0.37 (358.15 K); 5.56 ± 0.38 (368.15 K).
As for `CCC(=O)CC` [pentan-3-one] + CCCCn1cc[n+](C)c1.N#CN=C=[N-], the activity coefficient by setting is: (318.15 K) 2.04 ± 0.14; (328.15 K) 2.16 ± 0.15; (338.15 K) 2.27 ± 0.15; (348.15 K) 2.38 ± 0.16; (358.15 K) 2.49 ± 0.17; (368.15 K) 2.6 ± 0.18.
